# In patent US5770617A, “Terbenzimidazoles useful as antifungal agents” (Rutgers, The State University of New Jersey, priority 1997, dated 1998):
# Columns and labels:
# [1] = target: T1, Aspergillus topoisomerase I (Aspergillus nidulans, UniProt Q5BGS7); assay: Topoisomerase I cleavage assay, Aspergillus enzyme; assay type: biochemical; details: DNA cleavage assay
# T1 construct: about 105 kDa by phosphate transfer
# T1 sequence (Q5BGS7 1-871): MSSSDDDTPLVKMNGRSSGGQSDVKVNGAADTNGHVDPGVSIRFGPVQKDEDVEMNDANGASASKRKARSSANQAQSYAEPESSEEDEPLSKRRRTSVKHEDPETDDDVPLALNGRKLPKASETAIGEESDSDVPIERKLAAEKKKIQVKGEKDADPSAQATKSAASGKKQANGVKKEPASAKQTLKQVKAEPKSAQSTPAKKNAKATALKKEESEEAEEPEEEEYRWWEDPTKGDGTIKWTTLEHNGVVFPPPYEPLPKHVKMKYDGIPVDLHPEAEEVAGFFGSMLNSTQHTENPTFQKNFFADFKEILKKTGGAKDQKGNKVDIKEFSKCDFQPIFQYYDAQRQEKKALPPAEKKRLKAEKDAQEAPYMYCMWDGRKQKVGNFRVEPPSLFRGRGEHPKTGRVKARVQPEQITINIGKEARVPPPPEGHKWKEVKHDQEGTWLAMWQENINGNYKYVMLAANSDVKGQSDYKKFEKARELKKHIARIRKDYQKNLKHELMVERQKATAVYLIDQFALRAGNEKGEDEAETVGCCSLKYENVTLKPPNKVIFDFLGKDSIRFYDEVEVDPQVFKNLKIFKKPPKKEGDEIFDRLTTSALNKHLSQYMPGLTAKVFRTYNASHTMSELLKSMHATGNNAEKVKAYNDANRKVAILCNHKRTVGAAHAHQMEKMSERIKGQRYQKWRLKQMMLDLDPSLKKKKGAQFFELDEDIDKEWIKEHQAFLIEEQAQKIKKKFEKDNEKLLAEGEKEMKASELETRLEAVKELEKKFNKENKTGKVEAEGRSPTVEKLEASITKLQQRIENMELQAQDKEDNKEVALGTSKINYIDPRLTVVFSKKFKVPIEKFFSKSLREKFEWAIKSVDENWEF
# Procedure: Two liters of YG medium (0.5% yeast extract and 2% glucose) were inoculated with approximately 5×10^8 conidia/ml. After 16 hours of growth at 37° C., the mycelia were collected, washed with Buffer I (50 mM Tris-HCl, pH 7.7, 1 mM EDTA, 1 mM EGTA, 10% glycerol, 1 mM phenylmethylsulfonyl fluoride and 1 mM 2-mercaptoethanol), and quickly chilled in liquid nitrogen. The frozen mycelia (approximately 20 grams) were ground to powder and resuspended in 300 ml of Buffer I. The lysate was centrifuged at 10K rpm in a Sorval HB3 Rotor for 15 minutes to remove cell debris. The supernatant was made 6% in polyethylene glycol (v/v) and 1M NaCl. After one hour on ice with gentle stirring, the solution was centrifuged at 14K rpm in a Sorvall Rotor for 30 minutes to remove nucleic acids.
# Subsequent steps in purification were the same as described previously for purification of recombinant human DNA topoisomerase I (B. Gatto et al., Cancer Res., 56, 2795 (1996)). Briefly, the supernatant was chromatographed directly onto a hydroxyapatite Bio-gel HTP (BioRad Laboratories, Richmond, Calif.) column. Fractions containing relaxation activity were pooled, diluted and then loaded onto a BioRex70 column (BioRad Laboratories, Richmond, Calif.). The column was developed with a linear gradient from 0.2 to 1M KCl. The peak fractions were pooled and dialyzed overnight at 4° C. against 30 mM potassium phosphate, 50% glycerol (v/v), 0.5 mM EDTA, and 1 mM DTT. Recombinant human topoisomerase I was purified from Escherichia coli BL21 (DE3) harboring PET1B as described previously (Gatto et al., Cancer Res., 56, 2795 (1996)).
# DNA topoisomerase I cleavage assays were performed as described by Y.-H. Hsiang et al., J. Biol. Chem., 260, 14873 (1985). YEpG DNA was linearized with BamHI and then 3 '-end-labeled with Klenow polymerase and α[-^32 P]dCTP. Following phenol extraction and ethanol precipitation, the labeled DNA was resuspended in 10 mM Tris, pH 8.0, and 1 mM EDTA. The DNA cleavage assay was done in a reaction mixture (20 μl) containing 40 mM Tris-HCl, pH 7.8, 100 mM KCl, 10 mM MgCl2, 0.5 mM dithiothreitol, 0.5 mM EDTA, 30 μg/ml bovine serum albumin, 20 ng of labeled YEpG DNA, and […] of Aspergillus or human topoisomerase I diluted to various extents. Following incubation at 23° C. for 15 minutes, the reactions were terminated by the addition of SDS (final concentration 1%) and proteinase K (final concentration 200 μg/ml). Proteinase K treatment continued at 37° C. for another 1 hour. The terminated reactions were either alkali-denatured and then loaded (alkaline loading) or loaded directedly in neutral loading buffer (neutral loading) onto a 1% agarose gel in neutral TPE electrophoresis solution. Gel drying and autoradiography were performed as described by Hsiang et al., cited above.
# [2] = tested on: yeast cells expressing human topoisomerase I; assay: Yeast cytotoxicity assay, human topoisomerase I; assay type: cell-based, S. cerevisiae
# From the text: (§1) The topoisomerase I-specific in vivo cytotoxicity assay was adapted from A. M. Knab et al., J. Biol. Chem., 268, 22322 (1993). In this system, various topoisomerase I genes or cDNAs cloned into the single-copy yeast plasmid vector (YCpGAL1; Knab et al., cited above) are expressed under the control of the GAL1 promoter in the JN2-134 strain of S. cerevisiae (MAT, rad52::Leu2, trp1, ade2-1, his7, ura3-52, ise1, top1-1, and leu2; M. A. Bjornsti et al., Cancer Res., 49, 6318 (1989)). The topoisomerase I gene or cDNA constructs in the vector are, respectively, the wild-type yeast topoisomerase I gene (YCpGAL-ScTOP1; need cite (1989)), a nonfunctional topoisomerase I gene where the active site tyrosine-727 is mutated to phenylalanine (YCPGAL1-Sctop1Y727; A. M. Knab et al., J. Biol. Chem., 268, 22322 (1993)), and the wild-type human topoisomerase I cDNA (YCp-GAL-hTOP1; M. A. Bjornsti et al., Cancer Res., 49, 6318 (1989)).
# (§2) To qualitatively test the cytotoxicity and the topoisomerase I specificity of the drugs, yeast cells containing the specified plasmid were grown in dropout medium supplemented with uracil, 2% galactose, and the drug being tested.
# [3] = tested on: yeast cells expressing yeast topoisomerase I; assay: Yeast cytotoxicity assay, yeast topoisomerase I; assay type: cell-based, S. cerevisiae
# From the text: as §1, §2
# [4] = tested on: yeast cells expressing nonfunctional yeast topoisomerase I; assay: Yeast cytotoxicity assay, nonfunctional yeast topoisomerase I; assay type: cell-based, S. cerevisiae
# From the text: as §1, §2
# [5] = target: T2, mammalian DNA topoisomerase I (Homo sapiens, UniProt P11387); details: cited from earlier work
# T2 sequence (P11387 1-765): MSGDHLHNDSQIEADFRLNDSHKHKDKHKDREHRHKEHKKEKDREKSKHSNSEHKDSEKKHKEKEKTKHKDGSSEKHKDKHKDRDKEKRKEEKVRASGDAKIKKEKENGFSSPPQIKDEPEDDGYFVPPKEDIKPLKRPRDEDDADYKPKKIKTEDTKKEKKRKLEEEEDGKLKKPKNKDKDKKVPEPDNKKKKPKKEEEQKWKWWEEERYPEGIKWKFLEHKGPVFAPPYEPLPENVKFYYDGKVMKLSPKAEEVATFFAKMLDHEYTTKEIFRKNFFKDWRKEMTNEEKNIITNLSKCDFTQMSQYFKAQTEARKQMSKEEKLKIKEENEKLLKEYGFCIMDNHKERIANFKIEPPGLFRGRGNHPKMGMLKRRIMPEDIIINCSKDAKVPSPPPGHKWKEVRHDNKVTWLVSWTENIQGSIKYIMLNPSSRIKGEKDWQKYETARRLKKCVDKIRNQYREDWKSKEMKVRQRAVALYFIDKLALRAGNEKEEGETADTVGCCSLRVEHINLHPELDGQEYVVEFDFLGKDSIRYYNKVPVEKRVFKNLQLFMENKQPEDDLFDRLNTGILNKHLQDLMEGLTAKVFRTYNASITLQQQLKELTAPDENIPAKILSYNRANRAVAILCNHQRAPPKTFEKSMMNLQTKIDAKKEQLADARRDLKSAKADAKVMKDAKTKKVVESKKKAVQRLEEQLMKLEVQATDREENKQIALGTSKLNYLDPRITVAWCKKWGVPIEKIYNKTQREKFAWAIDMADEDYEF
smiles,measurement,setting,value
COc1ccc(-c2nc3ccc([N+](=O)[O-])cc3[nH]2)cc1 [QS/II/9],"inhibition (poisoning) of Aspergillus topoisomerase I, in words",[1],"None of the mono-benzimidazoles, including QS/II/50, QS/II/51, QS/II/59A, an QS/II/9, exhibited any inhibitory effect"
same,cytotoxicity to yeast cells expressing human topoisomerase I,[2],highly cytotoxic
same,cytotoxicity to yeast cells expressing functional yeast topoisomerase I,[3],not cytotoxic
same,cytotoxicity to yeast cells expressing nonfunctional yeast topoisomerase I,[4],not cytotoxic
same,"inhibition (poisoning) of mammalian DNA topoisomerase I, previous studies",[5],inhibitors (poisons)
